# From patent US20240058364A1, “A COMPOSITION FOR USE IN THE TREATMENT OF RECTAL AND/OR INTESTINAL INFLAMMATION” (CANNAMORE BIOTECHS LTD., priority 2020, published 2024)
# System: IL8 secretion from TNFα induced Caco-2 cells
# Test: IL8 secretion from TNFα induced Caco-2 cells (HTRF)
# Assay type: cell-based, Human
# Conditions: 24 h incubation; combinations: CBD 30 μM with NaB or NaP 20 mM
# Description: Cell lines were cultured according to standard mammalian tissue culture protocols and sterile technique. Human colon epithelial cells, Caco-2, were cultured in high glucose Dulbecco's Modified Eagle Medium (DMEM). Human monocytes THP-1 cells line were cultured in RPMI medium 1640. Both media were supplemented with 10% fetal bovine serum (FBS), 2 mM 1-glutamine and 0.1% penicillin-streptomycin solution in a humidified atmosphere (5% CO2, 95% air, 37° C.) in a 75 cm2 cell culture treated flask (Eppendorf). All the media and supplements were obtained from Biological Industries.
# Interleukin 8 (IL 8) detection and quantification was performed with Homogeneous Time-Resolved fluorescence (HTRF).
# Caco-2 cells were seeded in a 96 micro well delta surface plates (Eppendorf) at a starting confluence of 2×10^4 cells/well and were incubated for 21 days. Growth medium was replaced every 2-3 days.
# After 22 days, the medium was replaced with medium containing both TNFα (as a damage inducer) and the tested sample (as treatment) using specific media containing 5% FBS. After 24 hours incubation, the supernatant was collected and stored for cytokine analysis. The supernatant was diluted up to 5 times in working media to avoid the hook effect.
# HTRF assays were performed in white 96-well plate (CisBio Bioassays) with a total working volume of 20 μL. All HTRF reagents were purchased from CisBio Bioassays and reconstituted according to the manufacturer protocols. For each assay 16 μL of diluted supernatants samples were incubate with 4 μL mixed solution containing donor and acceptor antibodies.
# After 2 h incubation HTRF signals were measured using SPARK multimode microplate reader with an excitation filter at 320 nm and fluorescence wavelength measurement at 620 and 665 nm, an integration delay of 60 μs and an integration time of 400 μs. Results were analyzed with a two-wavelength signal ratio: [intensity (665 nm)/intensity (620 nm)]*104. Calculation and analysis of cytokines release was performed according to the manufacturer protocols and using the 4PL 1/Y2 formula in GraphPad Prism software.
row,SMILES,IL8 secretion from TNFα induced Caco2 cells (result in words)
1,"C=C(C)[C@@H]1CCC(C)=C[C@H]1c1c(O)cc(CCCCC)cc1O [CBD, 2-[(6R)-3-Methyl-6-prop-1-en-2-yl-1cyclohex-2-envyl]-5pentylbenzene-1,3-diol, reference compound]",didn't exhibit any significant effect
2,"CCCC(=O)[O-].[Na+] [NaB, sodium butyrate]",didn't exhibit any significant effect
3,"CCC(=O)[O-].[Na+] [NaP, sodium propionate]",mild reduction of IL8 secretion
